Experimental data published in PubChem BioAssay AID252 (DTP/NCI, 2004).
Values joined by “and” are separate entries in the source; they are usually repeats but may differ in a detail not shown here. Equal values may be shown once. Toxic doses and inconclusive results are not listed.

System: BDF1 mice, intracerebral L1210 leukemia, survival T/C
Experiment: NCI In Vivo Anticancer Drug Screen. Data for tumor model L1210 Leukemia (intracerebral) in B6D2F1 (BDF1) mice
Conditions: endpoint: mean survival time, higher = longer survival
Procedure, shortened: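 Transplantable tumour-bearing mice, compound-treated vs vehicle controls; read-out survival, reported as T/C ratio.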

For O=NN(CCF)C(=O)NC1CCS(=O)(=O)CC1, the T/C (dose: 2.5 mg/kg/injection, schedule: Q01DX001 (ip), vehicle: other) was 111 % of control, the T/C (dose: 2.9 mg/kg/injection, schedule: Q01DX001 (ip), vehicle: other) was 108 % of control and 114 % of control and the T/C (dose: 3.75 mg/kg/injection, schedule: Q01DX001 (ip), vehicle: other) was 118 % of control. For the same compound, the T/C (dose: 4.8 mg/kg/injection, schedule: Q01DX001 (oral), vehicle: other) was 181 % of control, the T/C (dose: 5.0 mg/kg/injection, schedule: Q01DX001 (ip), vehicle: other) was 124 % of control and the T/C (dose: 6.0 mg/kg/injection, schedule: Q01DX001 (ip), vehicle: other) was 121 % of control. For the same compound, the T/C (dose: 7.0 mg/kg/injection, schedule: Q01DX001 (ip), vehicle: other) was 165 % of control, the T/C (dose: 7.5 mg/kg/injection, schedule: Q01DX001 (ip), vehicle: other) was 163 % of control and the T/C (dose: 10.0 mg/kg/injection, schedule: Q01DX001 (ip), vehicle: other) was 183 % of control. The T/C (dose: 11.0 mg/kg/injection, schedule: Q01DX001 (ip), vehicle: other) was 191 % of control, the T/C (dose: 11.0 mg/kg/injection, schedule: Q01DX001 (oral), vehicle: other) was 200 % of control and 315 % of control and the T/C (dose: 12.0 mg/kg/injection, schedule: Q01DX001 (ip), vehicle: other) was 150 % of control and 214 % of control. For the same compound, the T/C (dose: 15.0 mg/kg/injection, schedule: Q01DX001 (ip), vehicle: other) was 202 % of control, the T/C (dose: 16.0 mg/kg/injection, schedule: Q01DX001 (ip), vehicle: other) was 284 % of control and the T/C (dose: 20.0 mg/kg/injection, schedule: Q01DX001 (ip), vehicle: other) was 322 % of control. The T/C (dose: 21.0 mg/kg/injection, schedule: Q01DX001 (oral), vehicle: other) was 477 % of control and 662 % of control, the T/C (dose: 24.0 mg/kg/injection, schedule: Q01DX001 (ip), vehicle: other) was 341 % of control and 410 % of control and 463 % of control and the T/C (dose: 30.0 mg/kg/injection, schedule: Q01DX001 (ip), vehicle: other) was 348 % of control. The T/C (dose: 40.0 mg/kg/injection, schedule: Q01DX001 (ip), vehicle: other) was 305 % of control, the T/C (dose: 40.0 mg/kg/injection, schedule: Q01DX001 (oral), vehicle: other) was 456 % of control and 486 % of control and the T/C (dose: 48.0 mg/kg/injection, schedule: Q01DX001 (ip), vehicle: other) was 354 % of control. The T/C (dose: 80.0 mg/kg/injection, schedule: Q01DX001 (oral), vehicle: other) was 86 % of control.

C=CCNC(=O)NCC=C was tested, and the T/C (dose: 25.0 mg/kg/injection, schedule: Q01DX009 (ip), vehicle: saline) was 101 % of control, the T/C (dose: 50.0 mg/kg/injection, schedule: Q01DX009 (ip), vehicle: saline) was 103 % of control and the T/C (dose: 100.0 mg/kg/injection, schedule: Q01DX009 (ip), vehicle: saline) was 97 % of control. The T/C (dose: 200.0 mg/kg/injection, schedule: Q01DX009 (ip), vehicle: saline) was 105 % of control.

For CN(N=O)C(=O)NC(=O)N(C)N=O, the T/C (dose: 27.5 mg/kg/injection, schedule: Q01DX001 (ip), vehicle: carboxymethylcellulose (CMC)) was 107 % of control and the T/C (dose: 54.0 mg/kg/injection, schedule: Q01DX001 (ip), vehicle: carboxymethylcellulose (CMC)) was 104 % of control.

O=NN(CCCl)C(=O)Nc1ccc2c(c1)CCCC2 was tested, and the T/C (dose: 125.0 mg/kg/injection, schedule: Q01DX001 (ip), vehicle: carboxymethylcellulose (CMC)) was 157 % of control, the T/C (dose: 178.0 mg/kg/injection, schedule: Q01DX001 (ip), vehicle: carboxymethylcellulose (CMC)) was 150 % of control and the T/C (dose: 187.0 mg/kg/injection, schedule: Q01DX001 (ip), vehicle: carboxymethylcellulose (CMC)) was 97 % of control. The T/C (dose: 238.0 mg/kg/injection, schedule: Q01DX001 (ip), vehicle: carboxymethylcellulose (CMC)) was 100 % of control.

In the case of O=NN(CCCl)C(=O)NC1CC2CCC1C2 (stereo not given), the T/C (dose: 14.5 mg/kg/injection, schedule: Q01DX001 (ip), vehicle: other) was 124 % of control, the T/C (dose: 26.0 mg/kg/injection, schedule: Q01DX001 (ip), vehicle: carboxymethylcellulose (CMC)) was 196 % of control and the T/C (dose: 29.25 mg/kg/injection, schedule: Q01DX001 (oral), vehicle: other) was 162 % of control and 176 % of control and 191 % of control. For the same compound, the T/C (dose: 39.0 mg/kg/injection, schedule: Q01DX001 (ip), vehicle: other) was 236 % of control, the T/C (dose: 41.0 mg/kg/injection, schedule: Q01DX001 (ip), vehicle: carboxymethylcellulose (CMC)) was 247 % of control and 265 % of control and the T/C (dose: 58.5 mg/kg/injection, schedule: Q01DX001 (oral), vehicle: other) was 306 % of control and 356 % of control and 442 % of control. For the same compound, the T/C (dose: 62.0 mg/kg/injection, schedule: Q01DX001 (ip), vehicle: carboxymethylcellulose (CMC)) was 303 % of control and 306 % of control, the T/C (dose: 87.0 mg/kg/injection, schedule: Q01DX001 (ip), vehicle: other) was 151 % of control and the T/C (dose: 93.0 mg/kg/injection, schedule: Q01DX001 (ip), vehicle: carboxymethylcellulose (CMC)) was 188 % of control and 268 % of control. For the same compound, the T/C (dose: 117.0 mg/kg/injection, schedule: Q01DX001 (oral), vehicle: other) was 111 % of control and 154 % of control and 294 % of control and the T/C (dose: 139.0 mg/kg/injection, schedule: Q01DX001 (ip), vehicle: carboxymethylcellulose (CMC)) was 105 % of control and 101 % of control.

With Nc1nc(=S)c2ncn(C3OC(CO)C(O)C3O)c2[nH]1 (stereo not given) the T/C (dose: 0.66 mg/kg/injection, schedule: Q01DX015 (ip), vehicle: carboxymethylcellulose (CMC)) was 105 % of control, the T/C (dose: 1.0 mg/kg/injection, schedule: Q01DX015 (ip), vehicle: carboxymethylcellulose (CMC)) was 115 % of control and the T/C (dose: 1.5 mg/kg/injection, schedule: Q01DX015 (ip), vehicle: carboxymethylcellulose (CMC)) was 121 % of control. The T/C (dose: 95.0 mg/kg/injection, schedule: Q01DX001 (ip), vehicle: carboxymethylcellulose (CMC)) was 157 % of control, the T/C (dose: 144.0 mg/kg/injection, schedule: Q01DX001 (ip), vehicle: carboxymethylcellulose (CMC)) was 171 % of control and the T/C (dose: 215.0 mg/kg/injection, schedule: Q01DX001 (ip), vehicle: carboxymethylcellulose (CMC)) was 152 % of control.

With O=P(NC12CC3CC(CC(C3)C1)C2)(N1CC1)N1CC1 the T/C (dose: 9.0 mg/kg/injection, schedule: Q04DX003 (ip), vehicle: Klucel (hydroxypropylcellulose) (HPC)) was 112 % of control, the T/C (dose: 12.0 mg/kg/injection, schedule: Q01DX001 (ip), vehicle: Klucel (hydroxypropylcellulose) (HPC)) was 109 % of control and the T/C (dose: 18.0 mg/kg/injection, schedule: Q01DX001 (ip), vehicle: Klucel (hydroxypropylcellulose) (HPC)) was 117 % of control.

With C[n+]1ccc(Nc2ccc(NC(=O)c3ccc(Nc4cc[n+](C)c5ccc(N)cc45)cc3)cc2)cc1 the T/C (dose: 0.5 mg/kg/injection, schedule: Q01DX009 (ip), vehicle: Klucel (hydroxypropylcellulose) (HPC)) was 93 % of control, the T/C (dose: 1.0 mg/kg/injection, schedule: Q01DX009 (ip), vehicle: Klucel (hydroxypropylcellulose) (HPC)) was 106 % of control and the T/C (dose: 2.0 mg/kg/injection, schedule: Q01DX009 (ip), vehicle: Klucel (hydroxypropylcellulose) (HPC)) was 103 % of control. The T/C (dose: 4.0 mg/kg/injection, schedule: Q01DX009 (ip), vehicle: Klucel (hydroxypropylcellulose) (HPC)) was 110 % of control and the T/C (dose: 8.0 mg/kg/injection, schedule: Q01DX009 (ip), vehicle: Klucel (hydroxypropylcellulose) (HPC)) was 122 % of control.

In the case of CC(C)(Cc1ccccc1)NC(=O)N(CCCl)N=O, the T/C (dose: 375.0 mg/kg/injection, schedule: Q01DX001 (ip), vehicle: other) was 122 % of control and the T/C (dose: 500.0 mg/kg/injection, schedule: Q01DX001 (ip), vehicle: other) was 114 % of control.

With Cc1cccc2c(Nc3ccc(NS(C)(=O)=O)cc3)c3ccccc3nc12 the T/C (dose: 10.0 mg/kg/injection, schedule: Q01DX009 (ip), vehicle: saline) was 100 % of control, the T/C (dose: 10.0 mg/kg/injection, schedule: Q01DX009 (sc), vehicle: saline) was 96 % of control and the T/C (dose: 20.0 mg/kg/injection, schedule: Q01DX009 (ip), vehicle: saline) was 110 % of control. The T/C (dose: 20.0 mg/kg/injection, schedule: Q01DX009 (sc), vehicle: saline) was 101 % of control, the T/C (dose: 40.0 mg/kg/injection, schedule: Q01DX009 (ip), vehicle: saline) was 112 % of control and the T/C (dose: 40.0 mg/kg/injection, schedule: Q01DX009 (sc), vehicle: saline) was 97 % of control. The T/C (dose: 80.0 mg/kg/injection, schedule: Q01DX009 (ip), vehicle: saline) was 87 % of control and the T/C (dose: 80.0 mg/kg/injection, schedule: Q01DX009 (sc), vehicle: saline) was 104 % of control.

With CSCS(=O)C[C@H](CO)NC(=O)/C=C/c1c(C)[nH]c(=O)[nH]c1=O (stereo not given in full) the T/C (dose: 1.1 mg/kg/injection, schedule: Q01DX001 (ip), vehicle: carboxymethylcellulose (CMC)) was 95 % of control, the T/C (dose: 1.7 mg/kg/injection, schedule: Q01DX001 (ip), vehicle: carboxymethylcellulose (CMC)) was 101 % of control and the T/C (dose: 2.6 mg/kg/injection, schedule: Q01DX001 (ip), vehicle: carboxymethylcellulose (CMC)) was 98 % of control.
